Columns and labels:
Assay type in all cases: functional
LOX IMVI = assay: Growth inhibition of human LOX IMVI cells assessed as growth percentage at 0.1 uM incubated for 48 hrs by sulforhodamine B assay relative to control; details: read-out: Activity
BT-549 [1] = assay: Growth inhibition of human BT-549 cells assessed as growth percentage at 100 uM incubated for 48 hrs by sulforhodamine B assay relative to control; details: read-out: Activity
NCI/ADR-RES [2] = assay: Growth inhibition of human NCI/ADR-RES cells assessed as growth percentage at 10 uM incubated for 48 hrs by sulforhodamine B assay relative to control; details: read-out: Activity
MCF7 [3] = assay: Antiproliferative activity against human MCF7 cells assessed as cell growth inhibition at 10 uM measured after 72 hrs by MTT assay relative to control; details: read-out: GI
MDA-MB-468 [4] = assay: Growth inhibition of human MDA-MB-468 cells assessed as growth percentage at 0.01 uM incubated for 48 hrs by sulforhodamine B assay relative to control; details: read-out: Activity
Malme-3M = assay: Growth inhibition of human Malme-3M cells assessed as growth percentage at 10 uM incubated for 48 hrs by sulforhodamine B assay relative to control; details: read-out: Activity
DU-145 [5] = assay: Growth inhibition of human DU-145 cells assessed as growth percentage at 10 uM incubated for 48 hrs by sulforhodamine B assay relative to control; details: read-out: Activity
SR [6] = assay: Growth inhibition of human SR cells incubated for 48 hrs by sulforhodamine B assay; details: for CC50: read-out: LC50 (the source's name)
COLO 205 [7] = assay: Growth inhibition of human COLO 205 cells assessed as growth percentage at 10 uM incubated for 48 hrs by sulforhodamine B assay relative to control; details: read-out: Activity
HT-29 = assay: Growth inhibition of human HT-29 cells incubated for 48 hrs by sulforhodamine B assay; details: for GI50: HT-29; for CC50: HT-29, read-out: LC50 (the source's name)
HCT-15 [8] = assay: Growth inhibition of human HCT-15 cells assessed as growth percentage at 1 uM incubated for 48 hrs by sulforhodamine B assay relative to control; details: read-out: Activity
IGROV-1 [9] = assay: Growth inhibition of human IGROV-1 cells incubated for 48 hrs by sulforhodamine B assay
HOP-92 [10] = assay: Growth inhibition of human HOP-92 cells assessed as growth percentage at 1 uM incubated for 48 hrs by sulforhodamine B assay relative to control; details: read-out: Activity
IGROV-1 [11] = assay: Growth inhibition of human IGROV-1 assessed as growth percent at 0.1 uM incubated for 48 hrs by sulforhodamine B assay relative to control; details: read-out: Activity
NCI-H522 = assay: Growth inhibition of human NCI-H522 cells assessed as growth percentage at 10 uM incubated for 48 hrs by sulforhodamine B assay relative to control; details: read-out: Activity
UACC-257 = assay: Growth inhibition of human UACC-257 cells assessed as growth percentage at 0.1 uM incubated for 48 hrs by sulforhodamine B assay relative to control; details: read-out: Activity
SR [12] = assay: Growth inhibition of human SR cells assessed as growth percentage at 0.1 uM incubated for 48 hrs by sulforhodamine B assay relative to control; details: read-out: Activity
A498 [13] = assay: Growth inhibition of human A498 cells assessed as growth percentage at 0.1 uM incubated for 48 hrs by sulforhodamine B assay relative to control; details: read-out: Activity
MDA-MB-468 [14] = assay: Growth inhibition of human MDA-MB-468 cells assessed as growth percent at 0.1 uM incubated for 48 hrs by sulforhodamine B assay relative to control; details: read-out: Activity
BT-549 [15] = assay: Growth inhibition of human BT-549 cells assessed as growth percentage at 0.1 uM incubated for 48 hrs by sulforhodamine B assay relative to control; details: read-out: Activity
MCF7 [16] = assay: Antiproliferative activity against human MCF7 cells assessed as cell growth inhibition measured after 72 hrs by MTT assay
COLO 205 [17] = assay: Growth inhibition of human COLO 205 cells assessed as growth percentage at 100 uM incubated for 48 hrs by sulforhodamine B assay relative to control; details: read-out: Activity
NCI-H460 = assay: Growth inhibition of human NCI-H460 cells assessed as growth percentage at 0.1 uM incubated for 48 hrs by sulforhodamine B assay relative to control; details: read-out: Activity
COLO 205 [18] = assay: Growth inhibition of human COLO 205 cells assessed as growth percentage at 1 uM incubated for 48 hrs by sulforhodamine B assay relative to control; details: read-out: Activity
A498 [19] = assay: Growth inhibition of human A498 cells assessed as growth percentage at 1 uM incubated for 48 hrs by sulforhodamine B assay relative to control; details: read-out: Activity
MDA-MB-435 = assay: Growth inhibition of human MDA-MB-435 cells assessed as growth percentage at 10 uM incubated for 48 hrs by sulforhodamine B assay relative to control; details: read-out: Activity
SN12C [20] = assay: Growth inhibition of human SN12C cells assessed as growth percentage at 0.1 uM incubated for 48 hrs by sulforhodamine B assay relative to control; details: read-out: Activity
HCT-15 [21] = assay: Growth inhibition of human HCT-15 cells assessed as growth percentage at 0.01 uM incubated for 48 hrs by sulforhodamine B assay relative to control; details: read-out: Activity
SW-620 = assay: Growth inhibition of human SW-620 cells assessed as growth percentage at 0.01 uM incubated for 48 hrs by sulforhodamine B assay relative to control; details: read-out: Activity
SR [22] = assay: Growth inhibition of human SR cells assessed as growth percentage at 100 uM incubated for 48 hrs by sulforhodamine B assay relative to control; details: read-out: Activity
NCI-H226 = assay: Growth inhibition of human NCI-H226 cells assessed as growth percentage at 1 uM incubated for 48 hrs by sulforhodamine B assay relative to control; details: read-out: Activity
DU-145 [23] = assay: Growth inhibition of human DU-145 cells incubated for 48 hrs by sulforhodamine B assay; details: for GI50 / TGI: DU-145
SN12C [24] = assay: Growth inhibition of human SN12C cells assessed as growth percentage at 10 uM incubated for 48 hrs by sulforhodamine B assay relative to control; details: read-out: Activity
HOP-92 [25] = assay: Growth inhibition of human HOP-92 cells assessed as growth percentage at 10 uM incubated for 48 hrs by sulforhodamine B assay relative to control; details: read-out: Activity
HCT-15 [26] = assay: Growth inhibition of human HCT-15 cells assessed as growth percentage at 0.1 uM incubated for 48 hrs by sulforhodamine B assay relative to control; details: read-out: Activity
SN12C [27] = assay: Growth inhibition of human SN12C cells assessed as growth percentage at 0.01 uM incubated for 48 hrs by sulforhodamine B assay relative to control; details: read-out: Activity
IGROV-1 [28] = assay: Growth inhibition of human IGROV-1 assessed as growth percent at 100 uM incubated for 48 hrs by sulforhodamine B assay relative to control; details: read-out: Activity
HCT-15 [29] = assay: Growth inhibition of human HCT-15 cells assessed as growth percentage at 10 uM incubated for 48 hrs by sulforhodamine B assay relative to control; details: read-out: Activity
MOLT-4 = assay: Growth inhibition of human MOLT-4 cells assessed as growth percentage at 0.1 uM incubated for 48 hrs by sulforhodamine B assay relative to control; details: read-out: Activity
NCI/ADR-RES [30] = assay: Growth inhibition of human NCI/ADR-RES cells assessed as growth percentage at 0.01 uM incubated for 48 hrs by sulforhodamine B assay relative to control; details: read-out: Activity

`Nc1nc2[nH]c(CN3CCN(c4cc(Cl)cc(Cl)c4)CC3)c(CN3CCN(c4cc(Cl)cc(Cl)c4)CC3)c2c(=O)[nH]1` was tested, and the growth at 0.1 µM (LOX IMVI) was 99%, the growth at 100 µM (BT-549 [1]) was -37% and the growth at 10 µM (NCI/ADR-RES [2]) was 87.6%. It also gave an inhibition of growth at 10 µM (MCF7 [3]) of 82.5%, a growth at 0.01 µM (MDA-MB-468 [4]) of 97% and a growth at 10 µM (Malme-3M) of 74.3%. The growth at 10 µM (DU-145 [5]) was 81.3%, the GI50 (SR [6]; Homo sapiens, SR) was 1460 nM and the TGI (SR [6]; Homo sapiens, SR) was 4460 nM. For the same molecule, the CC50 (SR [6]) was over 100 µM, the growth at 10 µM (COLO 205 [7]) was 10.9% and the GI50 (HT-29) was 1740 nM. For the same molecule, the TGI (HT-29; HT-29, 48 h) was 3.41 µM, the CC50 (HT-29) was 6.7 µM and the growth at 1 µM (HCT-15 [8]) was 94%. The GI50 (IGROV-1 [9]) was 1950 nM, the TGI (IGROV-1 [9]) was 3.98 µM and the growth at 1 µM (HOP-92 [10]) was 65%. The growth at 0.1 µM (IGROV-1 [11]) was 105%, the growth at 10 µM (NCI-H522) was 83.3% and the growth at 0.1 µM (UACC-257) was 99%. The growth at 0.1 µM (SR [12]) was 105%, the growth at 0.1 µM (A498 [13]) was 82% and the growth at 0.1 µM (MDA-MB-468 [14]) was 94%. The growth at 0.1 µM (BT-549 [15]) was 92%, the GI50 (MCF7 [16]) was 4.02 µM and the growth at 100 µM (COLO 205 [17]) was -45%. It also gave a growth at 0.1 µM (NCI-H460) of 104%, a growth at 1 µM (COLO 205 [18]) of 85% and a growth at 1 µM (A498 [19]) of 75%. For the same molecule, the growth at 10 µM (MDA-MB-435) was 8.61%, the growth at 0.1 µM (SN12C [20]) was 99% and the growth at 0.01 µM (HCT-15 [21]) was 98%. For the same molecule, the growth at 0.01 µM (SW-620) was 96%, the growth at 100 µM (SR [22]) was -30% and the growth at 1 µM (NCI-H226) was 93%. The GI50 (DU-145 [23]) was 1920 nM, the TGI (DU-145 [23]) was 3460 nM and the CC50 (DU-145 [23]; DU-145, 48 h, read-out: LC50 (the source's name)) was 6.24 µM. The growth at 10 µM (SN12C [24]) was 73.1%, the growth at 10 µM (HOP-92 [25]) was 66.2% and the growth at 0.1 µM (HCT-15 [26]) was 95%. For the same molecule, the growth at 0.01 µM (SN12C [27]) was 100%, the growth at 100 µM (IGROV-1 [28]) was -48% and the growth at 10 µM (HCT-15 [29]) was 67.4%. It also gave a growth at 0.1 µM (MOLT-4) of 104% and a growth at 0.01 µM (NCI/ADR-RES [30]) of 101%.
`CCCCCCCC(=O)Nc1nc2[nH]c(CN3CCN(Cc4cccc(F)c4)CC3)c(CN3CCN(Cc4cccc(F)c4)CC3)c2c(=O)[nH]1` gave a growth at 0.1 µM (LOX IMVI) of 94%, a growth at 100 µM (BT-549 [1]) of -91% and a growth at 10 µM (NCI/ADR-RES [2]) of -66.1%. For the same molecule, the inhibition of growth at 10 µM (MCF7 [3]) was 94.8%, the growth at 0.01 µM (MDA-MB-468 [4]) was 92% and the growth at 10 µM (Malme-3M) was -83.1%. It also gave a growth at 10 µM (DU-145 [5]) of -74.7%, a GI50 (SR [6]) of 210 nM and a TGI (SR [6]) of 550 nM. The GI50 (SR [6]; Homo sapiens, SR) was 208 nM, the TGI (SR [6]; Homo sapiens, SR) was 548 nM and the CC50 (SR [6]; Homo sapiens, SR) was over 100 µM. The growth at 10 µM (COLO 205 [7]) was -90.9%, the GI50 (HT-29) was 260 nM and the CC50 (HT-29) was 3.76 µM. It also gave a growth at 1 µM (HCT-15 [8]) of 1%, a GI50 (IGROV-1 [9]) of 1430 nM and a TGI (IGROV-1 [9]) of 3.2 µM. It also gave a CC50 (IGROV-1 [9]; read-out: LC50 (the source's name)) of 7.14 µM, a growth at 1 µM (HOP-92 [10]) of 59% and a growth at 0.1 µM (IGROV-1 [11]) of 95%. It also gave a growth at 10 µM (NCI-H522) of -71.5%, a growth at 0.1 µM (UACC-257) of 94% and a growth at 0.1 µM (SR [12]) of 88%. The growth at 0.1 µM (A498 [13]) was 76%, the growth at 0.1 µM (MDA-MB-468 [14]) was 95% and the growth at 0.1 µM (BT-549 [15]) was 85%. For the same molecule, the GI50 (MCF7 [16]) was 2.15 µM, the growth at 100 µM (COLO 205 [17]) was -94% and the growth at 0.1 µM (NCI-H460) was 105%. The growth at 1 µM (COLO 205 [18]) was 74%, the growth at 1 µM (A498 [19]) was 66% and the growth at 10 µM (MDA-MB-435) was -98.1%. The growth at 0.1 µM (SN12C [20]) was 98%, the growth at 0.01 µM (HCT-15 [21]) was 98% and the growth at 0.01 µM (SW-620) was 96%. The growth at 100 µM (SR [22]) was -12%, the growth at 1 µM (NCI-H226) was 91% and the GI50 (DU-145 [23]) was 1100 nM. The TGI (DU-145 [23]) was 2420 nM, the growth at 10 µM (SN12C [24]) was -90.6% and the growth at 10 µM (HOP-92 [25]) was -7.31%. The growth at 0.1 µM (HCT-15 [26]) was 94%, the growth at 0.01 µM (SN12C [27]) was 97% and the growth at 100 µM (IGROV-1 [28]) was -70%. It also gave a growth at 10 µM (HCT-15 [29]) of -70.8%, a growth at 0.1 µM (MOLT-4) of 95% and a growth at 0.01 µM (NCI/ADR-RES [30]) of 100%.

Source: ChEMBL document CHEMBL4673219, “Novel 5,6-disubstituted pyrrolo[2,3-d]pyrimidine derivatives as broad spectrum antiproliferative agents: Synthesis, cell based assays, kinase profile and molecular docking study” (Bioorg Med Chem, 2018)
